From US11319289B2, “5-hydroxy pyridine-based compound for use as P2X1 and P2X3 receptor antagonist and pharmaceutical composition comprising same” (GWANGJU INSTITUTE OF SCIENCE AND TECHNOLOGY, priority 2017, dated 2022)

How the values were obtained:
[1] = molecular target: T1, rP2X2/3 receptors (Rattus norvegicus, UniProt P49653+P49654); assay: Antagonistic effect for heterologous rP2X2/3 receptors; type: cell-based; conditions: FIG. 2
T1 sequence (P49653 1-472): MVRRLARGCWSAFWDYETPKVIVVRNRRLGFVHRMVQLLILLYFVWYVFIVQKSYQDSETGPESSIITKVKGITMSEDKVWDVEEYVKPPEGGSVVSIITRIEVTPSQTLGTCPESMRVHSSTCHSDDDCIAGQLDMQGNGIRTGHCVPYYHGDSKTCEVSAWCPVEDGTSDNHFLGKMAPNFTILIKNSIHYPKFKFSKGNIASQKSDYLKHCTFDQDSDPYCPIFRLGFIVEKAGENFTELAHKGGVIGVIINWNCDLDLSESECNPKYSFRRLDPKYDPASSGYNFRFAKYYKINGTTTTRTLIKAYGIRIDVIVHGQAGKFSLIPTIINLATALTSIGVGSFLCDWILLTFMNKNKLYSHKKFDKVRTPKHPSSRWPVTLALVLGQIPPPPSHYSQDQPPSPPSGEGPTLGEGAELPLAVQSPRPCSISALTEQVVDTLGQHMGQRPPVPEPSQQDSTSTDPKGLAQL
T1 sequence (P49654 1-397): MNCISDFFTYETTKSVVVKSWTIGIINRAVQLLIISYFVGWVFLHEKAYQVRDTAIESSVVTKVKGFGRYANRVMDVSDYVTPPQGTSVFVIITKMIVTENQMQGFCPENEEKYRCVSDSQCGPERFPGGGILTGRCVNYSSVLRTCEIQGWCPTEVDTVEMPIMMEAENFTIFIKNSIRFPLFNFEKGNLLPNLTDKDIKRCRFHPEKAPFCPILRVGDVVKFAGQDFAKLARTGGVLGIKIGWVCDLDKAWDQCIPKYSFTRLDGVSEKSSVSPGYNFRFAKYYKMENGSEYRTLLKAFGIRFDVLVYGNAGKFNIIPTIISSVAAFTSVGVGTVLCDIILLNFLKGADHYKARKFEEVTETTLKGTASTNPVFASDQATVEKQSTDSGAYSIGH
Text: FIGS. 2a to 2c show the antagonistic activity of Compound 29 of the present invention for P2X3 and P2X2/3 receptors (2a: hP2X3R, 2b: […]).

[2] = molecular target: T2, CYP450 2C9 (Homo sapiens, UniProt P11712); assay: CYP inhibition assay (Vivid fluorometric), 2C9; type: biochemical; conditions: 1 μM in Table 5
T2 construct: purchased Invitrogen
T2 sequence (P11712 whole entry): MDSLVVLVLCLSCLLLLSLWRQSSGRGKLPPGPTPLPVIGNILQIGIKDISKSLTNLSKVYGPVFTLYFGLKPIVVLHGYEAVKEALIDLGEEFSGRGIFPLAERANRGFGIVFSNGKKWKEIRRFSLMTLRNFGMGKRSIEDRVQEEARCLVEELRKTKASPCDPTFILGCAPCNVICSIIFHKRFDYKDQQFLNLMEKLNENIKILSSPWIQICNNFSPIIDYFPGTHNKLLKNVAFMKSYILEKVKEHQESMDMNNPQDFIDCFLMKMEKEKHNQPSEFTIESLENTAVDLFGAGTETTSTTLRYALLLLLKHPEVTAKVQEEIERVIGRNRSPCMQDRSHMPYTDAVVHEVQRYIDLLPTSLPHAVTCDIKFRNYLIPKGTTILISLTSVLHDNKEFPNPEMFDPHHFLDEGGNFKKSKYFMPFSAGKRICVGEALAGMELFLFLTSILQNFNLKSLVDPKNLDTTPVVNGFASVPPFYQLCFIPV
Protocol: (§1) CYP450 (1A2, 2C9, 3A4) enzyme assay was performed by a fluorometric assay using a Vivid® CYP450 screening kit (Invitrogen, USA, CA) in a 96-well black plate according to manufacturer's instructions with some modifications. The assay was performed at room temperature, and the final assay volume was 100 μL. […]
(§2) A master pre-mixture (enzyme (0.5 nmol recombinant human CYP450 enzyme)/NADP regeneration solution (333 mM glucose-6-phosphate dissolved, 30 U/mL glucose-6-phosphate dehydrogenase in 100 mM KH2PO4 solution at pH 8.0)) was prepared as a CYP450 reaction buffer (200 mM KH2PO4, pH 8.0). The master pre-mixture was added to each well of the 96 well plate, followed by the vehicle DMSO (control) and test compounds, and the mixture was preincubated for 10 minutes in the plate for background reading. Subsequently, the enzyme reaction was immediately initiated through the addition of CYP450 substrate/NADP^+ mixture. After incubation for 40 minutes, the fluorescence of the product was measured with a CHAMELEON™ multi-technology plate reader (2C9, 3A4: excitation wavelength of 530 nm and emission wavelength of 590 nm, 1A2: excitation wavelength of 415 nm and emission wavelength of 460 nm). The effect of the test compounds on CYP450 (1A2, 2C9, 3A4) was expressed as the percentage of enzyme activity.

[3] = molecular target: T3, CYP450 3A4 (Homo sapiens, UniProt P08684); assay: CYP inhibition assay (Vivid fluorometric), 3A4; type: biochemical; conditions: 1 μM in Table 5
T3 construct: purchased Invitrogen
T3 sequence (P08684 whole entry): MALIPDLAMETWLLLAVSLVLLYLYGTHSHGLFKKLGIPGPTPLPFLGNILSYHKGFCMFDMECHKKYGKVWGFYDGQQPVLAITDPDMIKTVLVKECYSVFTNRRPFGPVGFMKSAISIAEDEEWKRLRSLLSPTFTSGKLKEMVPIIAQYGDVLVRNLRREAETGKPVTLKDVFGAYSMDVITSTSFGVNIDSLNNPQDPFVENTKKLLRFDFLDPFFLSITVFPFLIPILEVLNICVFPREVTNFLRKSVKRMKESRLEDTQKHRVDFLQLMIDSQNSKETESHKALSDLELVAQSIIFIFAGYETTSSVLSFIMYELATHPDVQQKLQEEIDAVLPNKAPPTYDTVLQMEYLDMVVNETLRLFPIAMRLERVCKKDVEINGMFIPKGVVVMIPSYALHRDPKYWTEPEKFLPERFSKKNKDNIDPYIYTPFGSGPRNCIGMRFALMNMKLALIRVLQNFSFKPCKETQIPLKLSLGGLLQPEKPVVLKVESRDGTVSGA
Protocol: as §1, §2

[4] = tested on: CIPN rats (mechanical allodynia); assay: Antiallodynic effect (von Frey) in chemotherapy-induced peripheral neuropathy (CIPN) rats; type: in vivo; conditions: Rattus norvegicus, intravenous administration
Protocol: 3-1. Evaluation of In Vivo Efficacy
The antiallodynic effects (mechanical allodynia) were evaluated using rats according to a previously reported protocol. In order to evaluate the withdrawal threshold, rats (naive, SNL and CIPN) were placed on a plastic mesh floor of individual plastic cages. The rats were allowed to acclimate to the environment for 30 minutes and examined after intrathecal or intravenous administration to the caudal vein. The control group received the same volume of vehicle (intrathecal administration of saline or DMSO, intravenous administration of DMSO:PEG:PBS=1:6:3 v/v %) as the experimental groups. Evaluation of the mechanical withdrawal threshold was measured in responses to the application of calibrated von Frey filaments (Stoelting, Wood Dale, Ill., USA) to the hind paw of the rats through the holes on the mesh floor underneath the cage using the ‘up and down method’. A series of eight von Frey filaments (0.4, 0.7, 1.2, 2.0, 3.6, 5.5, 8.5, and 15 g) was applied perpendicular to the sole of the hind paw for 5 seconds while the head was bent. Active withdrawal or flinching of the paw was considered as a positive reaction. The absence of response in the rats, when a pressure was applied to 15 g von Frey filament, was used as a cut-off value. Only rats with definite allodynia (i.e., mechanical withdrawal threshold: less than 4 g after SNL or less than 5 g after CIPN) were tested. The rats after termination of the experiments were euthanized through an overdose of sevoflurane. The withdrawal threshold data for the von Frey filament test was calculated as % MPE (maximum possible effect) based on the following Calculation Equation: % MPE=[(Post-drug threshold−Post-injured baseline threshold)/(Cutoff threshold−post-injured baseline threshold)×100]. Dose-response data were analyzed using Scheffe's post hoc test and one-way analysis of variance (ANOVA).

SMILES	antagonistic effect for heterologous rP2X2/3 receptors [1]	CYP450 inhibition, 2C9 isozyme [2]	CYP450 inhibition, 3A4 isozyme [3]	ED50 [4]
CCCc1nc(Cc2cccc(Oc3ccccc3)c2)c(C)c(C(=O)O)c1O [Compound 29, 3-Hydroxy-5-methyl-6-(3-phenoxybenzyl)-2-propylisonicotinic acid]	showed an antagonistic effect	weak inhibitory effect	weak inhibitory effect	–
CCCc1nc(Cc2cccc(Oc3ccccc3)c2)c(C)c(C(=O)OC)c1O [Compound 28, Methyl 3-hydroxy-5-methyl-6-(3-phenoxybenzyl)-2-propylisonicotinate]	–	–	–	2.93 mg/kg
